Test results as given in patent publication US10266544B2, “Aryl substituted aminomethyl spectinomycin analogs as antibacterial agents” (ST. JUDE CHILDREN'S RESEARCH HOSPITAL, INC., priority 2013, dated 2019).
Counter-ions that a name gives are not always drawn. Like-named read-outs stand apart in the source and are kept apart here.

Legend:
Assay type in all cases: cell-based
[1] = system: Bacillus anthracis, Sterne 34F2; experiment: microbe, parasite or virus in culture; details: STERNE34F2, read-out: MIC B.a.
[2] = system: Bacillus subtilis (ATCC 23857); experiment: MIC determination, microbroth dilution; details: ATCC23857; Bacillus subtilis (ATCC 23857); read-out: MIC B.s.
[3] = system: Enterococcus faecalis (ATCC 33186); experiment: MIC determination, microbroth dilution
[4] = system: Staphylococcus aureus (ATCC 29213); experiment: MIC determination, microbroth dilution; details: ATCC29213; Staphylococcus aureus (ATCC 29213); read-out: MIC S.a.
[5] = system: MRSA, Staphylococcus aureus (NRS70); experiment: MIC determination, microbroth dilution; details: read-out: MIC MRSA
[6] = system: Streptococcus pneumoniae (R6); experiment: MIC determination, microbroth dilution
[7] = system: Streptococcus pyogenes (ATCC 700294); experiment: MIC determination, microbroth dilution; details: ATCC700294; Streptococcus pyogenes (ATCC 700294); read-out: MIC S. py.
[8] = system: acinetobacter baumannii (ATCC 19606); experiment: MIC determination, microbroth dilution; details: ATCC19606
[9] = system: Burkholderia cepacia (ATCC 25416); experiment: MIC determination, microbroth dilution; details: Burkholderia cepacia
[10] = system: Escherichia coli (ATCC 700926); experiment: MIC determination, microbroth dilution; details: ATCC700926; Escherichia coli (ATCC 700926); read-out: MIC E.c.
[11] = system: E. coli K12 ΔtolC; experiment: microbe, parasite or virus in culture; details: Escherichia coli, read-out: MIC E.c. Δtolc
[12] = system: Klebsiella pneumoniae (ATCC 33495); experiment: MIC determination, microbroth dilution; details: ATCC33495
[13] = system: Pseudomonas aeruginosa (PA01); experiment: MIC determination, microbroth dilution
[14] = system: Proteus mirabilis (ATCC 25933); experiment: MIC determination, microbroth dilution; details: ATCC25933
[15] = system: Proteus vulgaris (ATCC 33420); experiment: MIC determination, microbroth dilution; details: ATCC33420
[16] = system: Stenotrophomonas maltophilia (ATCC 13637); experiment: MIC determination, microbroth dilution; details: ATCC13637; Stenotrophomonas maltophilia (ATCC 13637); read-out: MIC S.m.
[17] = system: Haemophilus influenza (ATCC 49247); experiment: microbe, parasite or virus in culture; details: ATCC49247; Haemophilus influenza; 4 μg per disc; range of at least two experiments; read-out: Zone of inhibition H.i.
[18] = system: Legionella pneumophila (ATCC 33153); experiment: microbe, parasite or virus in culture; details: ATCC33153, 72 h, read-out: Zone of inhibition L.p.
[19] = system: Neisseria meningitides (ATCC 13077); experiment: Disc diffusion assay; details: ATCC13077, 4 μg per disc, read-out: Zone of inhibition N.m.
[20] = system: Neisseria gonorrhoeae (ATCC 49226); experiment: Disc diffusion assay; details: ATCC49226, 4 μg per disc, read-out: Zone of inhibition N.g.
[21] = system: Neisseria gonorrhoeae (ATCC 49226); experiment: Agar MIC determination (Alamar Blue); details: ATCC49226, agar MIC, read-out: MIC N.g.
[22] = system: Bacillus anthracis; experiment: microbe, parasite or virus in culture; details: read-out: MIC B.a.
[23] = system: Yersinia pestis; experiment: microbe, parasite or virus in culture; details: read-out: MIC Y.p.
[24] = system: live vaccine strain (LVS) of Francisella tularensis; experiment: microbe, parasite or virus in culture; details: Francisella tularensis
[25] = system: Streptococcus pneumoniae clinical isolates representing several serotypes; experiment: MIC determination, Streptococcus pneumoniae panel of clinical isolates (Table 7); details: Streptococcus pneumoniae
[26] = system: M. tuberculosis clinical isolates; experiment: microbe, parasite or virus in culture; details: Mycobacterium tuberculosis, H37RV, read-out: MIC H37Rv
[27] = system: Listeria monocytogenes; experiment: MIC determination (Table 6)
[28] = system: Moraxella catarrhalis; experiment: MIC determination (Table 6)
[29] = Streptococcus pneumoniae (R6), read-out: MIC S. pn.
[30] = Streptococcus pneumoniae, S. pneumoniae R6, Drug Susceptible, read-out: MIC R6
[31] = ATCC25416, read-out: MIC B.c., Burkholderia cepacia (ATCC 25416)
[32] = ATCC25416, read-out: MIC B.c., Burkholderia cepacia, Table 6
[33] = BAA1407, S. pneumoniae BAA-1407, Macrolide Resistant, read-out: MIC BAA-1407
[34] = S. pneumoniae Daw7, PenG Resistant, read-out: MIC Daw7
[35] = S. pneumoniae Daw8, PenG Resistant, read-out: MIC Daw8
[36] = S. pneumoniae Daw9, PenG Resistant, read-out: MIC Daw9
[37] = S. pneumoniae Daw62, PenG Resistant, read-out: MIC Daw62
[38] = S. pneumoniae Daw64, PenG Resistant, read-out: MIC Daw64
[39] = S. pneumoniae OVA6, Macrolide Resistant, read-out: MIC OVA6
[40] = S. pneumoniae T4X, Drug Susceptible, read-out: MIC T4X

Compound | MIC [1] | MIC [2] | MIC [4] | MIC [6, 29] | MIC [6, 30] | MIC [7] | MIC [8] | MIC [9, 31] | MIC [9, 32] | MIC [10] | MIC [11] | MIC [12] | MIC [13] | MIC [14] | MIC [15] | MIC [16] | zone of inhibition at 4 µg/disc [17] | zone of inhibition at 4 µg/disc [19] | zone of inhibition at 4 µg/disc [20] | MIC [21] | further results
CCc1ccc(CNC[C@]2(O)C[C@@H](C)O[C@H]3O[C@@H]4[C@@H](O)[C@H](NC)[C@H](O)[C@H](NC)[C@H]4O[C@]32O)cc1 [compound 3, 3′-(R)-3′-[(4-ethyl)benzylaminomethyl)]dihydrospectinomycin Trihydrochloride] | 12.5 to 25 µg/mL | 3.1 to 6.3 µg/mL | 50 µg/mL | 1.6 to 3.1 µg/mL | 3.1 µg/mL | 1.6 to 3.1 µg/mL | 200 µg/mL | > 200 µg/mL | > 200 µg/mL | 12.5 to 25 µg/mL | 6.3 µg/mL | 100 to 200 µg/mL | 100 to 200 µg/mL | 100 to 200 µg/mL | 25 to 50 µg/mL | 12.5 µg/mL | 15 to 17 mm | 18 mm | 16 mm | 12.5 µg/mL | MIC ([3]; Enterococcus faecalis, ATCC33186, read-out: MIC E.f.): 12.5 to 25 µg/mL; MIC ([5]; Staphylococcus aureus): 12.5 to 25 µg/mL; zone of inhibition at 4 µg/disc [18]: 28 to 40 mm; MIC [22]: 12.5 to 25 µg/mL; MIC [23]: > 200 µg/mL; MIC ([24]; read-out: MIC F.t.): 1.6 to 3.1 µg/mL; MIC [25, 33]: 6.3 µg/mL; MIC ([25]; S. pneumoniae A66.1x, Drug Susceptible, read-out: MIC A66.1x): 1.6 µg/mL; MIC ([25]; S. pneumoniae BHN97x, Drug Susceptible, read-out: MIC BHN97x): 3.1 µg/mL; MIC ([25]; S. pneumoniae D39X, Drug Susceptible, read-out: MIC D39X): 1.6 µg/mL; MIC [25, 34]: 6.3 µg/mL; MIC [25, 35]: 3.1 µg/mL; MIC [25, 36]: 3.1 µg/mL; MIC [25, 37]: 6.3 µg/mL; MIC [25, 38]: 6.3 µg/mL; MIC [25, 39]: 6.3 µg/mL; MIC [25, 40]: 3.1 µg/mL; MIC [26]: 25 µg/mL; MIC [27]: 6.3 µg/mL; MIC [28]: 3.1 to 6.3 µg/mL
CN[C@@H]1[C@H](O)[C@H](NC)[C@H]2O[C@]3(O)[C@H](O[C@@H]2[C@H]1O)O[C@H](C)C[C@@]3(O)CNCc1ccccc1OC(F)(F)F [compound 10, Trihydrochloride] | 200 µg/mL | 50 µg/mL | 200 µg/mL | 25 µg/mL | 12.5 µg/mL | 25 to 50 µg/mL | 100 to 200 µg/mL | > 200 µg/mL | > 200 µg/mL | 200 µg/mL | 25 to 50 µg/mL | 100 to 200 µg/mL | 200 µg/mL | > 200 µg/mL | > 200 µg/mL | 50 µg/mL | 0 mm | 0 mm | 8 mm | 200 µg/mL | MIC ([3]; ATCC33186, Enterococcus faecalis (ATCC 33186), read-out: MIC E.f.): 200 µg/mL; MIC ([5]; Staphylococcus aureus (NRS70)): 200 µg/mL; MIC [22]: 200 µg/mL; MIC [23]: 200 µg/mL; MIC [24]: 25 µg/mL; MIC ([24]; read-out: MIC F.t.): 25 µg/mL; MIC [25, 33]: 25 µg/mL; MIC [25, 34]: 12.5 µg/mL; MIC [25, 35]: 12.5 µg/mL; MIC [25, 36]: 12.5 µg/mL; MIC [25, 37]: 12.5 µg/mL; MIC [25, 38]: 25 µg/mL; MIC [25, 39]: 6.3 µg/mL; MIC [25, 40]: 3.1 µg/mL; MIC [26]: 200 µg/mL; MIC [27]: 100 µg/mL; MIC [28]: 50 to 100 µg/mL
